Assay: gradient 5% acetonitrile 3 min, to 50% in 2 min, to 85% in 15 min, held 3 min, 100 µL/min
Details: column: Zorbax Extend-C18 2.1 x 50 mm; eluents: water / acetonitrile, 0.1% formic acid
Method in brief: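 Pure standards were analyzed in mixtures of ~100 molecules using HPLC coupled to a quadrupole time-of-flight mass spectrometer, in both positive and negative ionization mode. Separation used a Zorbax Extend-C18 column (2.1 × 50 mm, 1.8 μm) at 100 μL/min, with water and acetonitrile each containing 0.1% formic acid. Dead and dwell volumes were 40 μL and 900 μL, and data were collected over 3 months. Retention time was read from computationally picked adduct peaks, each inspected manually.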

RP-LC retention time [s]	Compound
763	COc1ccc(-c2nc3sc(C(=O)N4CCOCC4)c(C)n3c2NC(C)(C)C)cc1
688	Cc1ccc2c(Nc3cccc(C(C)C)c3)c(C(=O)N3CCSCC3)cnc2n1
790	CCOC(=O)C1CCN(c2nc(=O)n(CC(=O)Nc3ccccc3C)c3ccccc23)CC1
652	CCOc1ccc(S(=O)(=O)NC2CC(=O)N(C3CC3)C2)cc1 (stereo not drawn)
1120	CCc1ccc(Oc2nccnc2N2CCC(C(=O)NC(C)c3ccccc3)CC2)cc1 (stereo not drawn)
803	CN(Cc1ccco1)C(=O)C1CCN(S(=O)(=O)c2ccc3c(c2)sc(=O)n3C)CC1
779	CCc1ccc(S(=O)(=O)N2CCC3(CC2)NCCN=C3NCc2ccccc2OC)cc1
711	CCOCC(=O)N1CCCN(C2=NS(=O)(=O)C(c3ccc(F)cc3)=C2C)CC1
589	CCOc1ccccc1N1C(=O)CC(N2CCC(C(N)=O)CC2)C1=O (stereo not drawn)
753	Cc1ccc(NC(=O)N2CCc3[nH]cnc3C2c2ccncc2)c(Cl)c1 (stereo not drawn)
706	Cn1c(=O)c2nc(SCCC(=O)Nc3c(F)cccc3F)n(C)c2n(C)c1=O
589	CC(=O)N1CCCN(C(=O)c2ccc(C#N)cc2)CC1
852	COc1ccc(NC(=O)C2CN(S(C)(=O)=O)CC23CCCCC3)cc1 (stereo not drawn)
886	CCC(=O)N1CCc2sc(S(=O)(=O)N3CCN(c4ccc(OC)cc4)CC3)cc2C1
496	CCCN1CCN(c2ncc3c(n2)CCN(Cc2ccc(CC)cc2)C3)CC1
657	CCNC(=O)C1CCCN(c2nc3ncn(CC(=O)Nc4ccc(F)cc4)c(=O)c3s2)C1 (stereo not drawn)

RP-LC retention time [s]	Compound
692	O=C(CN1CCN(Cc2ccc(F)cc2Cl)C1=O)NC1CC1
768	O=C(NCc1ccc(F)cc1Cl)C1CCc2nc(N3CCOCC3)ncc2C1 (stereo not drawn)
834	CCOc1ccccc1NC(=O)N1CCc2cn(C)c3cccc(c23)C1
848	COc1ccccc1CNC(=O)CN1CCN(Cc2cccc(Cl)c2)C1=O
1050	CCn1ncc(NC(=O)COc2ccc(C(C)C)cc2)c(N2CCOCC2)c1=O
1240	Cc1ccc(C)c(NC(=O)c2c(C)sc3ncnc(N4CCCC(C)C4)c23)c1 (stereo not drawn)
1220	CCOc1ccccc1NC(=O)N1c2ccccc2CC1c1nc(C(C)C)no1 (stereo not drawn)
864	CCc1ccc(NC(=O)C2Cc3cc(S(=O)(=O)N4CCCCC4)ccc3N2C(C)=O)cc1 (stereo not drawn)
607	CC(C)CNC(=O)N1CC(n2cc(C(=O)N3CCOCC3)nn2)C1
713	CCCn1cc(CCNC(=O)Nc2ccc(OC)cc2)c2cccnc21
578	CCCCC(=O)Nc1ccc(N2CCOCC2)cc1C(=O)O
610	CCN1CCCC1CN(CC(=O)N1CCNCC1)S(=O)(=O)c1ccc(CC(C)C)cc1 (stereo not drawn)
704	COc1cc2ncnc(Nc3ccc(F)c(Cl)c3)c2cc1NC(=O)/C=C/CN1CCCCC1
737	COC(=O)c1cc2n(n1)CC(C)(C(=O)NC1CCCCC1)N(c1cccc(F)c1)C2=O (stereo not drawn)
1110	CC(C)CNC(=O)c1cn(-c2ccc(-c3nc(C4CC4)no3)cn2)cn1

Further lines, the compound ahead of its results:

Compound	RP-LC retention time [s]
COc1cccc(C(=O)CC2(O)C(=O)Nc3ccc(C)cc32)c1 (stereo not drawn)	720
Cc1ccn2cc(-c3ccc(NC(=O)c4ccc([N+](=O)[O-])cc4)cc3)nc2n1	655
O=C(Nc1ccc2nnc(-c3ccc(C(=O)N4CCCCC4)cc3)n2c1)C1CCC1	562
Nc1ccccc1C(=O)NC(=O)Nc1ccc(Oc2ncc(Br)cn2)c(Cl)c1	946
CN(C)S(=O)(=O)c1ccc(-c2nnc(C(=O)NCC3CCCCC3)o2)cc1	937
O=C(NC1CCCCC1)c1cccc2c1CCN2C(=O)C1CC1	832
COc1ccc2c(c1)C1(CCN(C(=O)c3ccc(C)c(F)c3)C1)C(=O)N2 (stereo not drawn)	745
CC(=O)N1CCc2ccccc2C1C(=O)NCc1cccc(C(F)(F)F)c1 (stereo not drawn)	838
CC(=O)Nc1cc(C(=O)NC(C)c2ccccc2)c2ccc(C)nc2c1 (stereo not drawn)	1030
CCc1nn(C)c(=O)c2cc(S(=O)(=O)NCc3cc(F)cc(F)c3)cn12	882
CN(C)CCNC(=O)C(C)(C)Oc1ccc(Cl)cc1	629
CCCN1CCN(CCCNC(=O)C2CCN(Cc3cn(C)c4ccc(Cl)cc34)CC2)CC1	541
CCCN1C(=O)c2cc(S(=O)(=O)Nc3ccccc3C)ccc2Oc2cccnc21	1080
CCNC(=O)N1CCCC(c2nn(C)c(=O)n2C2CCCC2)C1 (stereo not drawn)	630
CCOC(=O)CNC(=O)N(C)CCc1noc(-c2ccc(F)cc2)n1	742
O=C(CCc1nnc(C(=O)Nc2ccccc2)s1)NCCc1c[nH]c2ccc(Cl)cc12	921
CCc1nnc(-c2cc(S(=O)(=O)NCCc3ccc(S(N)(=O)=O)cc3)cn2C)o1	676
CCCS(=O)(=O)N1CCC(F)(c2nc(-c3ccccc3)no2)CC1	1080
Cc1oc2ccn(Cc3ccccc3F)c(=O)c2c1C(=O)NCc1cccc(F)c1	726

Compound	RP-LC retention time [s]
CC(NC(=O)Cc1cccc(F)c1)C(=O)Nc1nc2ccccc2[nH]1 (stereo not drawn)	640
CC(C)(C)C(=O)NC1CCN(C(=O)c2ccccc2)C1 (stereo not drawn)	676
CCc1cccc(NC(=O)Cn2c(=O)n(-c3ccc(C)cc3)c(=O)c3c2cc(C)n3C)c1	975
CCCCN1CCN(Cc2nc(-c3ccc(N4CCSCC4)nc3)no2)CC1	653
Cc1cc(C)c2c(n1)SCC(=O)N2CCCC(=O)NCCCN1CC(C)CC(C)C1 (stereo not drawn)	595
COCCNC(=O)Cn1ccc2c(SCc3ccc(C)cc3)nccc21	658
O=C(Nc1nc2c(s1)CN(C(=O)c1cnn(-c3ccccc3)n1)CC2)C1CCCO1 (stereo not drawn)	762
CCCN1C(=O)COc2ccc(-c3noc(Cc4cc(OC)cc(OC)c4)n3)cc21	1080
NCC(O)C1CCCCCCC1 (stereo not drawn)	633
COc1cccc(NC(=O)N2CCC3(C2)C(=O)Nc2ccc(OC)cc23)c1 (stereo not drawn)	701
CCc1ccc(N2CC(c3noc(-c4ccc5c(c4)OCO5)n3)CC2=O)cc1 (stereo not drawn)	1060
COCCOCc1nc(C2CCCN2C(=O)c2cccs2)no1 (stereo not drawn)	690
O=c1c2nc(-c3ccc4c(c3)OCO4)cn2ccn1-c1cccc(Cl)c1	834
COc1ccc(C(=O)c2cn(CC(=O)c3ccc(Cl)cc3)c3nc(C)ccc3c2=O)cc1	1010
c1ccc(Cn2c(-c3ccc(OC[C@H](C4CCNCC4)n4c(-c5ccccc5)nc5ccccc54)cc3)nc3ccccc32)cc1	692
O=C(Nc1cnn(-c2ncc(N3CCCCC3)cn2)c1)C1CCCC1	807
CNC(=O)NCCc1c[nH]c2ncccc12	512
O=C(COCc1nnc(C(=O)Nc2cccc(F)c2)s1)NCCc1c[nH]c2ccccc12	893
Cc1cccc(-c2ncccc2CNS(=O)(=O)c2ccccc2Br)c1	731

Compound	RP-LC retention time [s]
COc1ccc(Nc2c(-c3ccccc3)nc3cnc(Br)cn23)cc1OC	856
CCCCNC(=O)C1CCCN(C(=O)Nc2ccc(S(=O)(=O)N(CC)CC)s2)C1 (stereo not drawn)	849
Cc1nnc2ccc(-c3noc(-c4ccc(F)cc4)n3)cn12	865
CCC(=O)N1CCc2c(C(=O)O)cccc21	657
Cc1ccn2c(NC(=O)c3cc(Br)ccc3Cl)c(-c3ccccc3)nc2c1	735
O=C(Nc1nnc(C2CC(=O)N(c3ccc(Cl)cc3)C2)o1)c1ccc(C(F)(F)F)cc1 (stereo not drawn)	884
COc1cc(NC(=O)C2CC(=O)N(CCc3c[nH]c4ccc(C)cc34)C2)cc(OC)c1OC (stereo not drawn)	753
Cc1nc(C)c(C(=O)Nc2nc(-c3ccc(-c4ccccc4)cc3)cs2)s1	1210
Cc1cccc(CNC(=O)C2CCN(C(=O)c3ncn4c3COC(c3ccccc3)C4)CC2)c1 (stereo not drawn)	879
CCc1nn(CC(=O)NCCc2c[nH]c3ccccc23)c(=O)c2cc3sccc3n12	842
O=c1c2nc(-c3ccc(F)cc3F)cn2ccn1-c1ccc(F)cc1	862
CCCNC(=O)CN1C(=O)CCCc2cc(S(=O)(=O)N3CCCCCC3)ccc21	803
CCC1CCCCN1S(=O)(=O)c1cc(-c2cc(C)[nH]n2)sc1C (stereo not drawn)	958
C[C@@H]1O[C@@H](OC2O[C@@H](COc3cc(O)c4c(=O)cc(-c5ccc(O)cc5)oc4c3)[C@@H](O)[C@@H](O)[C@@H]2O)[C@H](O)[C@H](O)[C@H]1O (stereo partly drawn)	671
COc1cc(Cl)c(C)cc1NC(=O)c1c(C)cc(C)cc1C	1150
Cc1ccccc1CNC(=O)Cn1c(C)cc(-c2nnc(C3CCC3)o2)c1C	902
O=C(Cn1cccc1-c1nc(-c2ccc(Cl)cc2)cs1)NCc1ccccn1	795
CN1CCC(N2CCN(C(=O)CCc3cn(C)nc3-c3ccc(F)cc3)CC2)CC1	559
Cc1nn(-c2ccccc2)c2c1N(CCCC(=O)NCc1ccc(N(C)C)cc1)C(=O)CS2	628
